Measured values taken from PubChem BioAssay AID2060512 (Molecular Pharmacology Branch, DTP, NCI, 2025).

Test system: 186277-243-T-J2-PDC complex spheroid viability
Test: Anticancer human tumor 186277-243-T-J2-PDC patient-derived colon adenocarcinoma cell line growth inhibition [GQUAD]
Conditions: for IC50: curve of first compound; for viability, T/C: stronger effect = lower value
Outline: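 Viability of tumor cells grown as complex spheroids with endothelial and stromal cells, exposed to drug combinations. Top concentration at or near clinical Cmax (else 10 microM), diluted in half-log increments.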

[1] = second compound 0.0316 µM, first compound 0.0316 µM
[2] = second compound 0.0316 µM, first compound 0.1 µM
[3] = second compound 0.0316 µM, first compound 0.316 µM
[4] = second compound 0.0316 µM, first compound 1 µM
[5] = second compound 0.0316 µM, first compound 3.16 µM
[6] = second compound 0.0316 µM, first compound 10 µM
[7] = second compound 0.1 µM, first compound 0.0316 µM
[8] = second compound 0.1 µM, first compound 0.1 µM
[9] = second compound 0.1 µM, first compound 0.316 µM
[10] = second compound 0.1 µM, first compound 1 µM
[11] = second compound 0.1 µM, first compound 3.16 µM
[12] = second compound 0.1 µM, first compound 10 µM
[13] = second compound 0.316 µM, first compound 0.0316 µM
[14] = second compound 0.316 µM, first compound 0.1 µM
[15] = second compound 0.316 µM, first compound 0.316 µM
[16] = second compound 0.316 µM, first compound 1 µM
[17] = second compound 0.316 µM, first compound 3.16 µM
[18] = second compound 0.316 µM, first compound 10 µM
[19] = second compound 1 µM, first compound 0.0316 µM
[20] = second compound 1 µM, first compound 0.1 µM
[21] = second compound 1 µM, first compound 0.316 µM
[22] = second compound 1 µM, first compound 1 µM
[23] = second compound 1 µM, first compound 3.16 µM
[24] = second compound 1 µM, first compound 10 µM
[25] = second compound 3.16 µM, first compound 0.0316 µM
[26] = second compound 3.16 µM, first compound 0.1 µM
[27] = second compound 3.16 µM, first compound 0.316 µM
[28] = second compound 3.16 µM, first compound 1 µM
[29] = second compound 3.16 µM, first compound 3.16 µM
[30] = second compound 3.16 µM, first compound 10 µM
[31] = second compound 10 µM, first compound 0.0316 µM
[32] = second compound 10 µM, first compound 0.1 µM
[33] = second compound 10 µM, first compound 0.316 µM
[34] = second compound 10 µM, first compound 1 µM
[35] = second compound 10 µM, first compound 3.16 µM
[36] = second compound 10 µM, first compound 10 µM
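For viability, T/C in this document: 100% = DMSO vehicle control viability.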

## C#Cc1c(F)ccc2cc(O)cc(-c3ncc4c(N5CC6CCC(C5)N6)nc(OCC56CCCN5CC(F)C6)nc4c3F)c12 (stereo not drawn) + Cc1[nH]c2ccc(F)cc2c1-c1nc2c3cccnc3c3ncccc3c2[nH]1
Second compound 0.0316 µM
  IC50: 0.0743 µM
Second compound 0.1 µM
  IC50: 0.0854 µM
Second compound 0.316 µM
  IC50: 0.0641 µM
Second compound 1 µM
  IC50: 0.0613 µM
Second compound 3.16 µM
  IC50: 0.0517 µM
Second compound 10 µM
  IC50: < 0.0316 µM
[1]
  viability, T/C: 94.1%
[2]
  viability, T/C: 34.5%
[3]
  viability, T/C: 14.3%
[4]
  viability, T/C: 7.64%
[5]
  viability, T/C: 7.24%
[6]
  viability, T/C: 5.55%
[7]
  viability, T/C: 106%
[8]
  viability, T/C: 41.1%
[9]
  viability, T/C: 14.2%
[10]
  viability, T/C: 8.6%
[11]
  viability, T/C: 7.78%
[12]
  viability, T/C: 5.66%
[13]
  viability, T/C: 78.1%
[14]
  viability, T/C: 30.7%
[15]
  viability, T/C: 18.1%
[16]
  viability, T/C: 7.67%
[17]
  viability, T/C: 7.43%
[18]
  viability, T/C: 3.69%
[19]
  viability, T/C: 68.6%
[20]
  viability, T/C: 36%
[21]
  viability, T/C: 17.7%
[22]
  viability, T/C: 7.93%
[23]
  viability, T/C: 6.21%
[24]
  viability, T/C: 5.18%
[25]
  viability, T/C: 56%
[26]
  viability, T/C: 42.3%
[27]
  viability, T/C: 19.2%
[28]
  viability, T/C: 10.7%
[29]
  viability, T/C: 5.86%
[30]
  viability, T/C: 3.99%
[31]
  viability, T/C: 47.4%
[32]
  viability, T/C: 38.2%
[33]
  viability, T/C: 16.8%
[34]
  viability, T/C: 7.64%
[35]
  viability, T/C: 7.32%
[36]
  viability, T/C: 2.6%

## CC(=O)O[C@H]1C(=O)[C@@]2(C)[C@H]([C@H](OC(=O)c3ccccc3)[C@]3(O)C[C@H](OC(=O)[C@H](O)[C@@H](NC(=O)c4ccccc4)c4ccccc4)C(C)=C1C3(C)C)[C@]1(OC(C)=O)CO[C@@H]1C[C@@H]2O + Cc1[nH]c2ccc(F)cc2c1-c1nc2c3cccnc3c3ncccc3c2[nH]1
Second compound 0.0316 µM
  IC50: < 0.0316 µM
Second compound 0.1 µM
  IC50: < 0.0316 µM
Second compound 0.316 µM
  IC50: < 0.0316 µM
Second compound 1 µM
  IC50: < 0.0316 µM
Second compound 3.16 µM
  IC50: < 0.0316 µM
Second compound 10 µM
  IC50: < 0.0316 µM
[1]
  viability, T/C: 15.7%
[2]
  viability, T/C: 4.95%
[3]
  viability, T/C: 6.22%
[4]
  viability, T/C: 4.92%
[5]
  viability, T/C: 4.75%
[6]
  viability, T/C: 4.49%
[7]
  viability, T/C: 15%
[8]
  viability, T/C: 5.55%
[9]
  viability, T/C: 4.93%
[10]
  viability, T/C: 4.7%
[11]
  viability, T/C: 4.6%
[12]
  viability, T/C: 4.6%
[13]
  viability, T/C: 15.1%
[14]
  viability, T/C: 5.62%
[15]
  viability, T/C: 4.72%
[16]
  viability, T/C: 4.93%
[17]
  viability, T/C: 5.02%
[18]
  viability, T/C: 4.65%
[19]
  viability, T/C: 12%
[20]
  viability, T/C: 5.43%
[21]
  viability, T/C: 4.8%
[22]
  viability, T/C: 4.59%
[23]
  viability, T/C: 4.91%
[24]
  viability, T/C: 4.25%
[25]
  viability, T/C: 11.6%
[26]
  viability, T/C: 5.28%
[27]
  viability, T/C: 4.81%
[28]
  viability, T/C: 3.9%
[29]
  viability, T/C: 5.02%
[30]
  viability, T/C: 4.07%
[31]
  viability, T/C: 12.4%
[32]
  viability, T/C: 5.2%
[33]
  viability, T/C: 3.75%
[34]
  viability, T/C: 3.85%
[35]
  viability, T/C: 4.46%
[36]
  viability, T/C: 3.46%

## CCCS(=O)(=O)Nc1ccc(F)c(C(=O)c2c[nH]c3ncc(-c4ccc(Cl)cc4)cc23)c1F + Cc1[nH]c2ccc(F)cc2c1-c1nc2c3cccnc3c3ncccc3c2[nH]1
Second compound 0.0316 µM
  IC50: 6.01 µM
Second compound 0.1 µM
  IC50: 6.44 µM
Second compound 0.316 µM
  IC50: 5.92 µM
Second compound 1 µM
  IC50: 6.94 µM
Second compound 3.16 µM
  IC50: 5.65 µM
Second compound 10 µM
  IC50: 5.28 µM
[1]
  viability, T/C: 109%
[2]
  viability, T/C: 105%
[3]
  viability, T/C: 99%
[4]
  viability, T/C: 91%
[5]
  viability, T/C: 86%
[6]
  viability, T/C: 24.1%
[7]
  viability, T/C: 111%
[8]
  viability, T/C: 107%
[9]
  viability, T/C: 101%
[10]
  viability, T/C: 103%
[11]
  viability, T/C: 98.5%
[12]
  viability, T/C: 20%
[13]
  viability, T/C: 111%
[14]
  viability, T/C: 107%
[15]
  viability, T/C: 104%
[16]
  viability, T/C: 119%
[17]
  viability, T/C: 82.7%
[18]
  viability, T/C: 22.7%
[19]
  viability, T/C: 89.6%
[20]
  viability, T/C: 107%
[21]
  viability, T/C: 108%
[22]
  viability, T/C: 115%
[23]
  viability, T/C: 103%
[24]
  viability, T/C: 25.3%
[25]
  viability, T/C: 110%
[26]
  viability, T/C: 113%
[27]
  viability, T/C: 97.9%
[28]
  viability, T/C: 95%
[29]
  viability, T/C: 89.8%
[30]
  viability, T/C: 13.7%
[31]
  viability, T/C: 90.2%
[32]
  viability, T/C: 95.9%
[33]
  viability, T/C: 103%
[34]
  viability, T/C: 98.4%
[35]
  viability, T/C: 82%
[36]
  viability, T/C: 9.98%

## O=c1[nH]cc(F)c(=O)[nH]1 + Cc1[nH]c2ccc(F)cc2c1-c1nc2c3cccnc3c3ncccc3c2[nH]1
Second compound 0.0316 µM
  IC50: > 10 µM
Second compound 0.1 µM
  IC50: > 10 µM
Second compound 0.316 µM
  IC50: 8.53 µM
Second compound 1 µM
  IC50: > 10 µM
Second compound 3.16 µM
  IC50: 7.71 µM
Second compound 10 µM
  IC50: 6.67 µM
[1]
  viability, T/C: 107%
[2]
  viability, T/C: 99.2%
[3]
  viability, T/C: 110%
[4]
  viability, T/C: 106%
[5]
  viability, T/C: 67.7%
[6]
  viability, T/C: 51.4%
[7]
  viability, T/C: 94.7%
[8]
  viability, T/C: 86.5%
[9]
  viability, T/C: 110%
[10]
  viability, T/C: 109%
[11]
  viability, T/C: 80.9%
[12]
  viability, T/C: 51.7%
[13]
  viability, T/C: 84.9%
[14]
  viability, T/C: 101%
[15]
  viability, T/C: 106%
[16]
  viability, T/C: 124%
[17]
  viability, T/C: 80.7%
[18]
  viability, T/C: 45.1%
[19]
  viability, T/C: 98.2%
[20]
  viability, T/C: 93.7%
[21]
  viability, T/C: 93.5%
[22]
  viability, T/C: 87.7%
[23]
  viability, T/C: 80.7%
[24]
  viability, T/C: 51.4%
[25]
  viability, T/C: 97.9%
[26]
  viability, T/C: 94%
[27]
  viability, T/C: 110%
[28]
  viability, T/C: 99.4%
[29]
  viability, T/C: 68.6%
[30]
  viability, T/C: 44.6%
[31]
  viability, T/C: 106%
[32]
  viability, T/C: 108%
[33]
  viability, T/C: 110%
[34]
  viability, T/C: 116%
[35]
  viability, T/C: 69.3%
[36]
  viability, T/C: 39.5%
